How the values were obtained:
[1] = system: Donor 4 COP Responsive T-Cell Lines; test: Multiplex bead cytokine assay (FlowCytomix), Donor 4 COP responsive T-cell lines; type: cell-based, human; set-up: IFN-γ / 1L-9 / IL-22 / IL-13: unit not given here
Experimental: (§1) The concentration of multiple cytokines was measured simultaneously using FlowCytoMix™ kits (eBioscience, San Diego Calif.). These are fluorescent bead based assays consisting of beads conjugated to anti cytokine antibodies. Beads specific for each cytokine are distinguished by size and fluorescence at 670 run. Cytokine bound to each bead is detected using a phycoerythrin conjugated antibody so that the fluorescence at 585 nm reflects the concentration of cytokine in the sample. Two kits were utilized which measured different cytokine panels. The TH1/TH2 kit measures IFN-γ, IL-1β, IL-2, IL-4, IL-5, IL-6, IL-8, IL-10, IL-12p70, TNF-α (TNF) and TNF-β (LT). The TH1/TH2/TH9/TH17/TH22 kit measures […], IL-1β, IL-2, IL-4, IL-5, IL-6, IL-9, IL-10, IL-12p70, IL-13, IL-17, IL-22, and TNF-α (TNF). Both kits were used following the manufacturer's instructions.
On Day 23 the positive wells (cell lines listed in Table 26) were transferred to a 24-well plate and restimulated with 10 μg/mL COP in the presence of mitomycin-treated autologous PBMC. IL-2 was added at Day 24. On Day 31 (after four rounds of restimulation) ten lines were restimulated with 10 μg/mL COP to confirm antigen reactivity by a cytokine secretion assay. T-cells were added at 2×10^4 cells/well in 96-well plates in X-VIVO 15 medium. Each line was separately stimulated with 10 μg/mL GMA, and 10 μg/mL COP in the presence of (2×10^5 cells/well, i.e., 1×10^6 cells/mL) mitomycin-treated autologous PBMC. Culture medium was collected after 20-24 hours for cytokine assay (FlowCytomix multiplex bead assay). The supernatants were tested in triplicate for IL-12 p70, IFN-γ, IL-2, IL-10, IL-6, IL-4, IL-5, TNF-α, and TNF-β secretion. […] Secretion of IL-2, 11-10, and IL-4 varied among the lines. All samples also secreted IL-8 (data not shown).
Culture medium from each of two Donor 4 cell lines was assayed for an extended panel of cytokines, showing production of IL-13 and IL-22 (Table 32).

[2] = system: Donor 3 GMA Responsive T Cells; test: Cytokine multiplex assay, Donor 3 GMA responsive T cells; type: cell-based, human; details: culture medium
Experimental: as §1

[3] = T-cell line 1H9, 10 μg/mL, Day 31, medium after 20-24 hours
[4] = T-cell line 1H11, 10 μg/mL, Day 31, medium after 20-24 hours
[5] = T-cell line 205-1B4, extended cytokine multiplex assay
[6] = T-cell line 205-1B7, 10 μg/mL, Day 31, medium after 20-24 hours
[7] = T-cell line 205-1C4, 10 μg/mL, Day 31, medium after 20-24 hours
[8] = T-cell line 205-1F4, extended cytokine multiplex assay
[9] = T-cell line 205-1F5, 10 μg/mL, Day 31, medium after 20-24 hours
[10] = T-cell line 205-1G3, 10 μg/mL, Day 31, medium after 20-24 hours
[11] = T-cell line 205-1H5, 10 μg/mL, Day 31, medium after 20-24 hours
[12] = T-cell line 205-1H7, 10 μg/mL, Day 31, medium after 20-24 hours

Substance: glatiramer acetate [COP]
- IFN-y [1, 3]: 419.21 pg/mL
- IL-2 [1, 3]: <=0 pg/mL
- IL-4 [1, 3]: <=0 pg/mL
- IL-5 [1, 3]: <=0 pg/mL
- IL-6 [1, 3]: <=0 pg/mL
- IL-10 [1, 3]: <=0 pg/mL
- IL-12 p70 [1, 3]: <=0 pg/mL
- TNF-α [1, 3]: 159.6 pg/mL
- TNF-β [1, 3]: <=0 pg/mL
- IFN-y [1, 4]: 1016.21 pg/mL
- IL-2 [1, 4]: 44.94 pg/mL
- IL-4 [1, 4]: 2.09 pg/mL
- IL-5 [1, 4]: 3665.58 pg/mL
- IL-6 [1, 4]: 20.11 pg/mL
- IL-10 [1, 4]: 143.84 pg/mL
- IL-12 p70 [1, 4]: 3.68 pg/mL
- TNF-α [1, 4]: 754.13 pg/mL
- TNF-β [1, 4]: 1.55 pg/mL
- 1L-9 [1, 5]: 29
- IFN-γ [1, 5]: 726
- IL-2 [1, 5]: 0
- IL-4 [1, 5]: 174
- IL-5 [1, 5]: 3660
- IL-6 [1, 5]: 114
- IL-10 [1, 5]: 32
- IL-13 [1, 5]: 19288
- IL-22 [1, 5]: 668
- TNF-α [1, 5]: 1336
- IFN-y [1, 6]: 935.78 pg/mL
- IL-2 [1, 6]: 27.99 pg/mL
- IL-4 [1, 6]: 200.19 pg/mL
- IL-5 [1, 6]: 7199.83 pg/mL
- IL-6 [1, 6]: 195.27 pg/mL
- IL-10 [1, 6]: 210.01 pg/mL
- IL-12 p70 [1, 6]: 18.39 pg/mL
- TNF-α [1, 6]: 1286.09 pg/mL
- TNF-β [1, 6]: 244.68 pg/mL
- IFN-y [1, 7]: 1212.03 pg/mL
- IL-2 [1, 7]: 478.51 pg/mL
- IL-4 [1, 7]: 199.97 pg/mL
- IL-5 [1, 7]: 6457.14 pg/mL
- IL-6 [1, 7]: 159.24 pg/mL
- IL-10 [1, 7]: 50.31 pg/mL
- IL-12 p70 [1, 7]: 51.14 pg/mL
- TNF-α [1, 7]: 1529.22 pg/mL
- TNF-β [1, 7]: 69.07 pg/mL
- 1L-9 [1, 8]: 10
- IFN-γ [1, 8]: 1393
- IL-2 [1, 8]: 110
- IL-4 [1, 8]: 10
- IL-5 [1, 8]: 1440
- IL-6 [1, 8]: 77
- IL-10 [1, 8]: 0
- IL-13 [1, 8]: 4502
- IL-22 [1, 8]: 168
- TNF-α [1, 8]: 616
- IFN-y [1, 9]: 452.76 pg/mL
- IL-2 [1, 9]: 205.85 pg/mL
- IL-4 [1, 9]: 293.46 pg/mL
- IL-5 [1, 9]: 13727.89 pg/mL
- IL-6 [1, 9]: 318.25 pg/mL
- IL-10 [1, 9]: 323.52 pg/mL
- IL-12 p70 [1, 9]: 55.94 pg/mL
- TNF-α [1, 9]: 833.39 pg/mL
- TNF-β [1, 9]: 278.68 pg/mL
- IFN-y [1, 10]: 211.16 pg/mL
- IL-2 [1, 10]: 10.89 pg/mL
- IL-4 [1, 10]: <=0 pg/mL
- IL-5 [1, 10]: 91.11 pg/mL
- IL-6 [1, 10]: 11.79 pg/mL
- IL-10 [1, 10]: <=0 pg/mL
- IL-12 p70 [1, 10]: <=0 pg/mL
- TNF-α [1, 10]: 38.56 pg/mL
- TNF-β [1, 10]: <=0 pg/mL
- IFN-y [1, 11]: 1149.77 pg/mL
- IL-2 [1, 11]: 15.14 pg/mL
- IL-4 [1, 11]: 79.67 pg/mL
- IL-5 [1, 11]: 3106.45 pg/mL
- IL-6 [1, 11]: 57.31 pg/mL
- IL-10 [1, 11]: 28.45 pg/mL
- IL-12 p70 [1, 11]: 7.96 pg/mL
- TNF-α [1, 11]: 1260.75 pg/mL
- TNF-β [1, 11]: 88.62 pg/mL
- IFN-y [1, 12]: 1617.25 pg/mL
- IL-2 [1, 12]: 351.63 pg/mL
- IL-4 [1, 12]: 90.37 pg/mL
- IL-5 [1, 12]: 101.71 pg/mL
- IL-6 [1, 12]: 69.44 pg/mL
- IL-10 [1, 12]: 10.06 pg/mL
- IL-12 p70 [1, 12]: 11.11 pg/mL
- TNF-α [1, 12]: 1924.81 pg/mL
- TNF-β [1, 12]: 49.17 pg/mL
- cytokine secretion ([1]; most tested Donor 4 cell lines, Day 31, 10 μg/mL, 20-24 hours): secreted IFN-γ, IL-5, and TNF-α
- IFN-γ ([2]; T-cell line 165-B5G): 190 pg/mL
- IL-4 ([2]; T-cell line 165-B5G): 17 pg/mL
- IL-5 ([2]; T-cell line 165-B5G): 374 pg/mL
- IL-13 ([2]; T-cell line 165-B5G): 2927 pg/mL
- IL-22 ([2]; T-cell line 165-B5G): 106 pg/mL
- IFN-γ ([2]; T-cell line 165-D8G): 115 pg/mL
- IL-4 ([2]; T-cell line 165-D8G): 14 pg/mL
- IL-5 ([2]; T-cell line 165-D8G): 309 pg/mL
- IL-13 ([2]; T-cell line 165-D8G): 3121 pg/mL
- IL-22 ([2]; T-cell line 165-D8G): 365 pg/mL
- IFN-γ ([2]; T-cell line 165-E9G): 638 pg/mL
- IL-4 ([2]; T-cell line 165-E9G): 12 pg/mL
- IL-5 ([2]; T-cell line 165-E9G): 208 pg/mL
- IL-13 ([2]; T-cell line 165-E9G): 1232 pg/mL
- IL-22 ([2]; T-cell line 165-E9G): 192 pg/mL
- IFN-γ ([2]; T-cell line 165-F8G): 771 pg/mL
- IL-4 ([2]; T-cell line 165-F8G): 0 pg/mL
- IL-5 ([2]; T-cell line 165-F8G): 297 pg/mL
- IL-13 ([2]; T-cell line 165-F8G): 1017 pg/mL
- IL-22 ([2]; T-cell line 165-F8G): 198 pg/mL
- IFN-γ ([2]; T-cell line 165-F10G): 1165 pg/mL
- IL-4 ([2]; T-cell line 165-F10G): 122 pg/mL
- IL-5 ([2]; T-cell line 165-F10G): 2586 pg/mL
- IL-13 ([2]; T-cell line 165-F10G): 11285 pg/mL
- IL-22 ([2]; T-cell line 165-F10G): 686 pg/mL
- IFN-γ ([2]; T-cell line 165-H11G): 724 pg/mL
- IL-4 ([2]; T-cell line 165-H11G): 9 pg/mL
- IL-5 ([2]; T-cell line 165-H11G): 321 pg/mL
- IL-13 ([2]; T-cell line 165-H11G): 1095 pg/mL
- IL-22 ([2]; T-cell line 165-H11G): 190 pg/mL
